Earlier results in patent US20230181690A1, “METHODS FOR TREATING ANEMIA USING AN ACTRIIB LIGAND TRAP AND FEDRATINIB” (Celgene Corporation, priority 2020, published 2023).
Positions count from the first letter of the chain named.

How the values were obtained:
[1] = system: MPN-associated myelofibrosis
[2] = system: JAK2V617F-driven myeloproliferative disease; settings: mouse, in vivo
[3] = system: cell models expressing mutationally active JAK2 or FLT3
[4] = system: Janus Kinase 2 (JAK2)
[5] = system: intermediate-2 or high-risk MF; settings: previously untreated patients with intermediate-2 or high-risk MF
[6] = system: cell models expressing mutationally active JAK2 or FLT3; remark: listed apart in the source
[7] = biological target: T1, GDF-11 (Homo sapiens, UniProt O95390)
T1 sequence (O95390 299-407): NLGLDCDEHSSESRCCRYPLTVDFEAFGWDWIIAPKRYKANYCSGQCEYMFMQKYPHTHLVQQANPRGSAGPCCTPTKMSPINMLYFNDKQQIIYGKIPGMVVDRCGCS

[8] = system: activin

Molecule: N#CC[C@H](C1CCCC1)n1cc(-c2ncnc3[nH]ccc23)cn1 [ruxolitinib]
- exacerbation of anemia ([1]; patients with MPN-associated myelofibrosis): can exacerbate the anemia

Molecule: Cc1cnc(Nc2ccc(OCCN3CCCC3)cc2)nc1Nc1cccc(S(=O)(=O)NC(C)(C)C)c1 [fedratinib, N-tert-butyl-3-[(5-methyl-2-{4-[2-(pyrrolidin-1-yl)ethoxy]anilino}pyrimidin-4-yl)amino]benzenesulfonamide]
- disease-associated symptoms [2]: improved disease-associated symptoms, including reduction of white blood cells, hematocrit, splenomegaly, and fibrosis
- phosphorylation of STAT3/5 [2]: blocked phosphorylation of STAT3/5
- cell proliferation [3]: inhibited cell proliferation
- potency for JAK2 over family members JAK1, JAK3 and TYK2 [4]: higher potency for JAK2 over family members JAK1, JAK3 and tyrosine kinase 2 (TYK2)
- clinical efficacy [5]: demonstrated clinical efficacy
- phosphorylation of STAT3/5 proteins [6]: reduced phosphorylation
- thrombocytopenia and anemia associated with therapy ([1]; patients): can be associated with moderate to severe thrombocytopenia and anemia

B1: ActRIIB(20-119)-Fc: ActRIIB-Fc fusion protein containing amino acids 20-119 of SEQ ID NO:14 (SEQ ID NO:18) (protein)
chain: GRGEAETRECIYYNANWELERTNQSGLERCEGEQDKRLHCYASWRNSSGTIELVKKGCWLDDFNCYDRQECVATEENPQVYFCCCEGNFCNERFTHLPEA
modifications: human ActRIIB soluble (extracellular), processed polypeptide sequence with the C-terminal 15 aa deleted (aa 20-119 of SEQ ID NO14)
- binding to GDF-11 relative to ActRIIB(20-134)-Fc [7]: reduced binding
- binding to activin relative to ActRIIB(20-134)-Fc [8]: reduced binding

B2: A64: Fc fusion protein having the ActRIIB extracellular sequence with an alanine at position 64 of SEQ ID NO:2 (protein)
chain: SGRGEAETRECIYYNANWELERTNQSGLERCEGEQDKRLHCYASWANSSGTIELVKKGCWLDDFNCYDRQECVATEENPQVYFCCCEGNFCNERFTHLPEAGGPEVTYEPPPTAPTGGGTHTCPPCPAPELLGGPSVFLFPPKPKDTLMISRTPEVTCVVVDVSHEDPEVKFNWYVDGVEVHNAKTKPREEQYNSTYRVVSVLTVLHQDWLNGKEYKCKVSNKALPVPIEKTISKAKGQPREPQVYTLPPSREEMTKNQVSLTCLVKGFYPSDIAVEWESNGQPENNYKTTPPVLDSDGSFFLYSKLTVDKSRWQQGNVFSCSVMHEALHNHYTQKSLSLSPGK
modifications: fusion protein comprising a soluble extracellular domain of ActRIIB (A64; SEQ ID NO 3) fused to an Fc domain
- affinity for GDF-11 [7]: relatively low affinity
- affinity for activin [8]: relatively low affinity

B3: R64: Fc fusion protein with an arginine at position 64 of the ActRIIB precursor amino acid sequence (protein)
chain: B2 chain with A46R
modifications: fusion protein comprising a soluble extracellular domain of ActRIIB (R64; SEQ ID NO15) fused to an Fc domain
- affinity for GDF-11 [7]: low nanomolar to high picomolar range
- affinity for activin [8]: low nanomolar to high picomolar range
